# Laboratory results reported in US8802597B2, “Herbicidal pyrimidines” (E I du Pont de Nemours and Company, priority 2003, dated 2014).
# Columns and labels:
# Format in all cases: in vivo
# [1] = test system: blackgrass (Alopecurus myosuroides); assay: Test B postemergence; conditions: for Blackgrass plant response rating: scale 0 to 100 (0 no effect, 100 complete control); for Plant response rating, Blackgrass: 500 g ai/ha, scale 0 to 100
# Outline: (§1)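 Test chemicals in a non-phytotoxic solvent mixture with surfactant were applied preemergence to planted seeds and postemergence to plants 2 to 18 cm tall (1- to 4-leaf stage). After 13 to 15 days in a greenhouse, injury was visually rated against untreated controls on a 0 to 100 scale.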
# wild oat (Avena fatua) = assay: Test B postemergence; conditions: for Oat, Wild plant response rating: scale 0 to 100 (0 no effect, 100 complete control); for Plant response rating, Oat, Wild: 500 g ai/ha, scale 0 to 100
# Outline: as §1
# [2] = test system: duck salad (Heteranthera limosa); assay: Test B flooded paddy test; conditions: Flood, scale 0 to 100
# Outline: (§2)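 Plants were grown to the 2-leaf stage before treatment, then kept in a greenhouse for 13 to 15 days. Injury was rated visually against untreated controls on a 0 to 100 scale, where 0 is no effect and 100 is complete control.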
# [3] = test system: barnyardgrass (Echinochloa crus-galli); assay: Test B flooded paddy test; conditions: Flood
# Outline: as §2
# [4] = test system: umbrella sedge (Cyperus difformis); assay: Test B flooded paddy test; conditions: Flood, scale 0 to 100
# Outline: as §2
# rice (Oryza sativa) = assay: Test B flooded paddy test; conditions: Flood, scale 0 to 100
# Outline: as §2
# [5] = test system: wheat (Triticum aestivum); assay: Test B pre/postemergence
# Outline: as §1
# [6] = test system: morningglory (Ipomoea coccinea); assay: Test B pre/postemergence
# Outline: as §1
# [7] = test system: lambsquarters (Chenopodium album); assay: Test B pre/postemergence
# Outline: as §1
# [8] = test system: crabgrass (Digitaria sanguinalis); assay: Test B pre/postemergence
# Outline: as §1
# [9] = test system: cocklebur (Xanthium strumarium); assay: Test B pre/postemergence
# Outline: as §1
# [10] = test system: barnyardgrass (Echinochloa crus-galli); assay: Test B pre/postemergence
# Outline: as §1
# corn (Zea mays) = assay: Test B pre/postemergence
# Outline: as §1
# [11] = test system: pigweed (Amaranthus retroflexus); assay: Test B pre/postemergence
# Outline: as §1
# [12] = test system: giant foxtail (Setaria faberii); assay: Test B pre/postemergence
# Outline: as §1
# [13] = test system: velvetleaf (Abutilon theophrasti); assay: Test B pre/postemergence
# Outline: as §1
# [14] = test system: Surinam grass (Brachiaria decumbens); assay: Test B pre/postemergence
# Outline: as §1
# [15] = 1000 g ai/ha, scale 0 (no effect) to 100 (complete control)
# [16] = Postemergence, 125 g ai/ha, scale 0 to 100 (0 no effect, 100 complete control)
# [17] = Postemergence, 500 g ai/ha, scale 0 to 100
# [18] = Preemergence, 125 g ai/ha, scale 0 to 100 (0 no effect, 100 complete control)
# [19] = Preemergence, 500 g ai/ha, scale 0 to 100 (0 no effect, 100 complete control)
# [20] = Postemergence, 62 g ai/ha, scale 0 to 100 (0 no effect, 100 complete control)
# [21] = Preemergence, 62 g ai/ha, scale 0 to 100, 0 no effect, 100 complete control
smiles,measurement,setting,value
COCc1nc(C2CC2)nc(N)c1Br [Compound 11],Blackgrass plant response rating,[1]; 125 g ai/ha,20
same,"Plant response rating, Blackgrass",[1],60
same,"Oat, Wild plant response rating",wild oat (Avena fatua); 125 g ai/ha,0
same,"Plant response rating, Oat, Wild",wild oat (Avena fatua),10
same,"Plant response rating, Ducksalad",[2]; 1000 g ai/ha,70
same,"Plant response rating, Barnyardgrass",[3]; [15],0
same,"Plant response rating, Sedge, Umbrella",[4]; 1000 g ai/ha,20
same,"Plant response rating, Rice",rice (Oryza sativa); 1000 g ai/ha,0
same,Wheat plant response rating,[5]; [16],0
same,"Plant response rating, Wheat",[5]; [17],40
same,"Plant response rating, Wheat",[5]; [18],0
same,Wheat plant response rating,[5]; [19],50
same,Morningglory plant response rating,[6]; [16],80
same,"Plant response rating, Morningglory",[6]; [17],100
same,"Plant response rating, Morningglory",[6]; [18],80
same,Morningglory plant response rating,[6]; [19],90
same,Lambsquarters plant response rating,[7]; [16],90
same,"Plant response rating, Lambsquarters",[7]; [17],100
same,"Plant response rating, Lambsquarters",[7]; [18],100
same,Lambsquarters plant response rating,[7]; [19],100
same,Crabgrass plant response rating,[8]; [16],30
same,"Plant response rating, Crabgrass",[8]; [17],70
same,"Plant response rating, Crabgrass",[8]; [18],30
same,Crabgrass plant response rating,[8]; [19],80
same,Cocklebur plant response rating,[9]; [16],80
same,"Plant response rating, Cocklebur",[9]; [17],90
same,"Plant response rating, Cocklebur",[9]; [18],80
same,Cocklebur plant response rating,[9]; [19],90
same,Barnyardgrass plant response rating,[10]; [16],20
same,"Plant response rating, Barnyardgrass",[10]; [17],90
same,"Plant response rating, Barnyardgrass",[10]; [18],0
same,Barnyardgrass plant response rating,[10]; [19],10
same,Corn plant response rating,corn (Zea mays); [16],0
same,"Plant response rating, Corn",corn (Zea mays); [17],0
same,"Plant response rating, Corn",corn (Zea mays); [18],0
same,Corn plant response rating,corn (Zea mays); [19],0
same,Pigweed plant response rating,[11]; [16],80
same,"Plant response rating, Pigweed",[11]; [17],90
same,"Plant response rating, Pigweed",[11]; [18],80
same,Pigweed plant response rating,[11]; [19],90
same,"Foxtail, Giant plant response rating",[12]; [16],10
same,"Plant response rating, Foxtail, Giant",[12]; [17],50
same,"Plant response rating, Foxtail, Giant",[12]; [18],10
same,"Foxtail, Giant plant response rating",[12]; [19],70
same,Velvetleaf plant response rating,[13]; [16],60
same,"Plant response rating, Velvetleaf",[13]; [17],80
same,"Plant response rating, Velvetleaf",[13]; [18],80
same,Velvetleaf plant response rating,[13]; [19],90
same,Surinam Grass plant response rating,[14]; [16],20
same,"Plant response rating, Surinam Grass",[14]; [17],50
same,"Plant response rating, Surinam Grass",[14]; [18],10
same,Surinam Grass plant response rating,[14]; [19],70
COC(=O)c1nc(-c2ccc(Br)cc2)nc(N)c1Br [Compound 129],Blackgrass plant response rating,[1]; 62 g ai/ha,70
same,Blackgrass plant response rating,[1]; 125 g ai/ha,70
same,"Oat, Wild plant response rating",wild oat (Avena fatua); 62 g ai/ha,0
same,"Oat, Wild plant response rating",wild oat (Avena fatua); 125 g ai/ha,40
same,"Plant response rating, Ducksalad",[2]; 125 g ai/ha,100
same,"Plant response rating, Ducksalad",[2]; 500 g ai/ha,100
same,"Plant response rating, Barnyardgrass","[3]; 125 g ai/ha, scale 0 to 100",0
same,"Plant response rating, Barnyardgrass","[3]; 500 g ai/ha, scale 0 to 100",20
same,"Plant response rating, Sedge, Umbrella",[4]; 125 g ai/ha,90
same,"Plant response rating, Sedge, Umbrella",[4]; 500 g ai/ha,100
same,"Plant response rating, Rice",rice (Oryza sativa); 125 g ai/ha,0
same,"Plant response rating, Rice",rice (Oryza sativa); 500 g ai/ha,0
same,Wheat plant response rating,[5]; [20],0
same,Wheat plant response rating,[5]; [16],20
same,"Plant response rating, Wheat",[5]; [21],0
same,"Plant response rating, Wheat",[5]; [18],20
same,Morningglory plant response rating,[6]; [20],50
same,Morningglory plant response rating,[6]; [16],100
same,"Plant response rating, Morningglory",[6]; [21],0
same,"Plant response rating, Morningglory",[6]; [18],0
same,Lambsquarters plant response rating,[7]; [20],100
same,Lambsquarters plant response rating,[7]; [16],100
same,"Plant response rating, Lambsquarters",[7]; [18],80
same,Crabgrass plant response rating,[8]; [20],50
same,Crabgrass plant response rating,[8]; [16],70
same,"Plant response rating, Crabgrass",[8]; [21],10
same,"Plant response rating, Crabgrass",[8]; [18],30
same,Cocklebur plant response rating,[9]; [20],70
same,Cocklebur plant response rating,[9]; [16],100
same,"Plant response rating, Cocklebur",[9]; [21],10
same,"Plant response rating, Cocklebur",[9]; [18],30
same,Barnyardgrass plant response rating,[10]; [20],60
same,Barnyardgrass plant response rating,[10]; [16],70
same,"Plant response rating, Barnyardgrass",[10]; [21],10
same,"Plant response rating, Barnyardgrass",[10]; [18],30
same,Corn plant response rating,corn (Zea mays); [20],70
same,Corn plant response rating,corn (Zea mays); [16],80
same,"Plant response rating, Corn",corn (Zea mays); [18],0
same,Pigweed plant response rating,[11]; [20],100
same,Pigweed plant response rating,[11]; [16],100
same,"Plant response rating, Pigweed",[11]; [21],80
same,"Plant response rating, Pigweed",[11]; [18],90
same,"Foxtail, Giant plant response rating",[12]; [20],40
same,"Foxtail, Giant plant response rating",[12]; [16],50
same,"Plant response rating, Foxtail, Giant",[12]; [21],0
same,"Plant response rating, Foxtail, Giant",[12]; [18],0
same,Velvetleaf plant response rating,[13]; [20],80
same,Velvetleaf plant response rating,[13]; [16],90
same,"Plant response rating, Velvetleaf",[13]; [21],50
same,"Plant response rating, Velvetleaf",[13]; [18],60
same,Surinam Grass plant response rating,[14]; [20],50
same,Surinam Grass plant response rating,[14]; [16],70
same,"Plant response rating, Surinam Grass",[14]; [21],0
same,"Plant response rating, Surinam Grass",[14]; [18],10
COC(=O)c1nc(C2CC2C)nc(N)c1Br (stereo not shown) [Compound 28],Blackgrass plant response rating,[1]; 125 g ai/ha,10
same,"Plant response rating, Blackgrass",[1],30
same,"Oat, Wild plant response rating",wild oat (Avena fatua); 125 g ai/ha,0
same,"Plant response rating, Oat, Wild",wild oat (Avena fatua),10
same,"Plant response rating, Ducksalad",[2]; 1000 g ai/ha,30
same,"Plant response rating, Barnyardgrass",[3]; [15],0
same,"Plant response rating, Sedge, Umbrella",[4]; 1000 g ai/ha,0
same,"Plant response rating, Rice",rice (Oryza sativa); 1000 g ai/ha,0
same,Wheat plant response rating,[5]; [16],0
same,"Plant response rating, Wheat",[5]; [17],10
same,"Plant response rating, Wheat",[5]; [18],10
same,Wheat plant response rating,[5]; [19],40
same,Morningglory plant response rating,[6]; [16],90
same,"Plant response rating, Morningglory",[6]; [17],90
same,"Plant response rating, Morningglory",[6]; [18],80
same,Morningglory plant response rating,[6]; [19],90
same,Lambsquarters plant response rating,[7]; [16],90
same,"Plant response rating, Lambsquarters",[7]; [17],90
same,"Plant response rating, Lambsquarters",[7]; [18],80
same,Lambsquarters plant response rating,[7]; [19],100
same,Crabgrass plant response rating,[8]; [16],30
same,"Plant response rating, Crabgrass",[8]; [17],50
same,"Plant response rating, Crabgrass",[8]; [18],70
same,Crabgrass plant response rating,[8]; [19],80
same,Cocklebur plant response rating,[9]; [16],90
same,"Plant response rating, Cocklebur",[9]; [17],100
same,"Plant response rating, Cocklebur",[9]; [18],80
same,Cocklebur plant response rating,[9]; [19],90
same,Barnyardgrass plant response rating,[10]; [16],20
same,"Plant response rating, Barnyardgrass",[10]; [17],50
same,"Plant response rating, Barnyardgrass",[10]; [18],10
same,Barnyardgrass plant response rating,[10]; [19],30
same,Corn plant response rating,corn (Zea mays); [16],0
same,"Plant response rating, Corn",corn (Zea mays); [17],0
same,"Plant response rating, Corn",corn (Zea mays); [18],0
same,Corn plant response rating,corn (Zea mays); [19],0
same,Pigweed plant response rating,[11]; [16],80
same,"Plant response rating, Pigweed",[11]; [17],90
same,"Plant response rating, Pigweed",[11]; [18],80
same,Pigweed plant response rating,[11]; [19],90
same,"Foxtail, Giant plant response rating",[12]; [16],20
same,"Plant response rating, Foxtail, Giant",[12]; [17],40
same,"Plant response rating, Foxtail, Giant",[12]; [18],30
same,"Foxtail, Giant plant response rating",[12]; [19],50
same,Velvetleaf plant response rating,[13]; [16],70
same,"Plant response rating, Velvetleaf",[13]; [17],90
same,"Plant response rating, Velvetleaf",[13]; [18],80
same,Velvetleaf plant response rating,[13]; [19],90
same,Surinam Grass plant response rating,[14]; [16],10
same,"Plant response rating, Surinam Grass",[14]; [17],50
same,Surinam Grass plant response rating,[14]; [19],60
